In EP2529745A1, “VEGF-D/VEGFR mediated regulation of dendrites” (Universität Heidelberg, priority 2011, dated 2012):

Key:
VEGFD = assay: qRT-PCR analysis of VEGFD expression in cultured hippocampal neurons; type: cell-based, mouse
Description: RNA extraction and cDNA synthesis. Total RNA was isolated at DIV10 to DIV13 from hippocampal primary neuron cultures or isolated brain tissues with Rneasy Mini Kit (Qiagen, Hilden, Germany) including an optional Dnase I treatment at room temperature for 15 min according to manufacturer's instructions (Qiagen). 1.2 µg of extracted RNA was reverse transcribed into first strand cDNA using High Capacity cDNA Reverse Transcription kit (Applied Biosystems, Foster City, CA).
Real time quantitative PCR. Quantitative reverse transcriptase PCR (qRT-PCR) was done on an ABI7300 thermal cycler using Universal qRT-PCR master mix with TaqMan Gene Expression Assays for the indicated genes (Applied Biosystems). The following TaqMan Gene Expression Assays were used in this study: Gusb (Mm00446953_m1), cFos (Mm00487425_m1), VEGFD (Mm00438965_m1), VEGFC (Mm01202432_m1), VEGF (Mm01281449_m1), VEGFR3 (Mm01292618_m1), beta-actin (Mm00607939_s1), beta-2 microglobulin (Mm00437762_m1), CBP (Mm01342435_m1), p38 MAPK alpha (Mm00442497_m1), p38 MAPK beta (Mm00440955_m1). Expression of target genes was normalized against the expression of Gusb as endogenous control gene. Data were derived from at least 5 independent experiments.

hippocampal neurons = assay: Morphometric analyses (total dendritic length, Sholl analysis, spines) of cultured hippocampal neurons; type: cell-based, C57BL/6 mice
Description: Hippocampal cultures and transfection. Hippocampal neurons from newborn C57BL/6 mice were cultured as known in the art. Experiments were done after a culturing period of 10 to 14 days in vitro (DIV). DNA transfection was done on DIV8 using Lipofectamine 2000 (Invitrogen, San Diego, CA). For the studies on dendrite morphology, neurons were analyzed 4-5 days after transfection.
Morphometric analyses. For 3D Sholl Analysis, total dendritic length and spine morphology were calculated using Object-Image freeware software with a specific set of macros (written by Dr. E. Ruthazer, McGill University, Quebec). Briefly, a z-Stack acquisition was imported, calibrated in Object-Image and manually traced. Total dendritic length was then computed. For Sholl analysis, the shell interval was set at 5 µm. All analyses were performed blind. In all in vitro experiments, for each condition, a minimum of 12 neurons from three independent preparations was analyzed. For the Golgi staining quantifications of 20 neurons for each condition from 4 different injected animals per viral construct were traced and analyzed. MEA recordings. […]
Immunocytochemistry. […] For the morphometric analyses, fluorescence images were acquired using a confocal laser-scanning microscope TCS SP2 (Leica, Mannheim, Germany) equipped with an inverted fluorescence microscope DM IRE2 (Leica) and Leica confocal scan software. […]

cFos = assay: qRT-PCR analysis of cFos expression in cultured hippocampal neurons
VEGFC = assay: qRT-PCR analysis of VEGFC expression in cultured hippocampal neurons

C[C@]12N[C@H](Cc3ccccc31)c1ccccc12 [MK801]
expression of VEGFD mRNA (VEGFD; 10 µM MK801, 10 µM nifedipine or both, DIV5 to DIV10): significantly reduced the expression of VEGFD mRNA

C[S+]([O-])c1ccc(-c2nc(-c3ccncc3)c(-c3ccc(F)cc3)[nH]2)cc1 (stereo not drawn) [SB203580]
effect on rVEGFD-induced rescue of dendrite length and complexity (hippocampal neurons; neurons expressing CaMBP4 (and CaMKIVK75E), treated 3 days with rVEGFD): severely compromised the ability of rVEGFD to rescue the impairment of dendrite length and complexity
Sholl analysis (hippocampal neurons; neurons expressing hrGFP, CaMBP4 or CaMKIVK75E, treated with SB203580 without rVEGFD): no difference compared to the respective untreated controls

CN1CCc2cc3c(cc2[C@H]1[C@@H]1OC(=O)c2c1ccc1c2OCO1)OCO3 [Bicuculline]
VEGFD mRNA levels (VEGFD): did not alter VEGFC or VEGFD mRNA levels
cFos mRNA (cFos): robust induction of cFos mRNA
VEGFC mRNA levels (VEGFC): did not alter VEGFC or VEGFD mRNA levels
